Tests used:
Test in all cases: Spot-on-lawn inhibition assay
Type in all cases: cell-based
[1] = test system: L. gelidum; set-up: key: “-“ = No inhibition; “+” = Unclear zone; “++” = zone < 1 cm; “+++”= zone > 1 cm; conditions: L. gelidum LMG 2386; 5 µl at 1 mg/ml; n=3
Description: (§1) A semi-quantitative spot-on-lawn inhibitory assay was performed on 51 bacterial indicator strains (Table S1) to determine the bacteriocins inhibition spectra. Overnight cultures were diluted 1:100 in BHI soft agar and distributed on BHI agar plates. Once solidified, bacteriocins with various concentrations were applied on designated spots. The plates were incubated at appropriate temperature O/N and inhibition zones were measured the following day. To determine minimal inhibitory concentration (MIC50) of H1 against clinical S. haemolyticus isolates (Table S2), as well as strains heterologously expressing RseP (Table S4), the microtiterplate antimicrobial assay was performed as previously described[41],[79]. MIC50 was defined as the minimal bacteriocin concentration needs to inhibit the growth of a bacterial strain by at least 50%.

[2] = test system: S. simulans; set-up: key: “-“ = No inhibition; “+” = Unclear zone; “++” = zone < 1 cm; “+++”= zone > 1 cm; conditions: S. simulans LMG 3233; 5 µl at 1 mg/ml; n=3
Description: as §1

[3] = test system: S. uberis; set-up: key: “-“ = No inhibition; “+” = Unclear zone; “++” = zone < 1 cm; “+++”= zone > 1 cm; conditions: 5 µl at 1 mg/ml, n=3
Description: as §1

[4] = test system: L. salivarius; set-up: key: “-“ = No inhibition; “+” = Unclear zone; “++” = zone < 1 cm; “+++”= zone > 1 cm; conditions: L. salivarius UCC118; 5 µl at 1 mg/ml; n=3
Description: as §1

[5] = test system: Carnobacterium divergens; set-up: key: “-“ = No inhibition; “+” = Unclear zone; “++” = zone < 1 cm; “+++”= zone > 1 cm; conditions: Carnobacterium divergens NCDO 2306; 5 µl at 1 mg/ml; n=3
Description: as §1

[6] = test system: Esherichia coli; set-up: key: “-“ = No inhibition; “+” = Unclear zone; “++” = zone < 1 cm; “+++”= zone > 1 cm; conditions: 5 µl at 1 mg/ml, n=3
Description: as §1

[7] = test system: L. innocua; set-up: key: “-“ = No inhibition; “+” = Unclear zone; “++” = zone < 1 cm; “+++”= zone > 1 cm; conditions: 5 µl at 1 mg/ml, n=3
Description: as §1

[8] = test system: L. sakei; set-up: key: “-“ = No inhibition; “+” = Unclear zone; “++” = zone < 1 cm; “+++”= zone > 1 cm; conditions: 5 µl at 1 mg/ml, n=3
Description: as §1

[9] = test system: Streptococcus dysgalactiae; set-up: key: “-“ = No inhibition; “+” = Unclear zone; “++” = zone < 1 cm; “+++”= zone > 1 cm; conditions: Streptococcus dysgalactiae 7649-3; 5 µl at 1 mg/ml; n=3
Description: as §1

[10] = test system: S. thermophilus; set-up: key: “-“ = No inhibition; “+” = Unclear zone; “++” = zone < 1 cm; “+++”= zone > 1 cm; conditions: S. thermophilus Sfi13; 5 µl at 1 mg/ml; n=3
Description: as §1

[11] = test system: L. lactis; set-up: key: “-“ = No inhibition; “+” = Unclear zone; “++” = zone < 1 cm; “+++”= zone > 1 cm; conditions: 5 µl at 1 mg/ml, n=3
Description: as §1

[12] = test system: L. monocytogenes; set-up: key: “-“ = No inhibition; “+” = Unclear zone; “++” = zone < 1 cm; “+++”= zone > 1 cm; conditions: 5 µl at 1 mg/ml, n=3
Description: as §1

[13] = test system: L. ivanovii; set-up: key: –: “−” = No inhibition; “+” = Unclear zone; “++” = zone < 1 cm; “+++” = zone ≥ 1 cm; conditions: L. ivanovii Li4; 5 µl at 1 mg/ml; n=3
Description: as §1

[14] = test system: L. plantarum; set-up: key: –: “−” = No inhibition; “+” = Unclear zone; “++” = zone < 1 cm; “+++” = zone ≥ 1 cm; conditions: L. plantarum LMG 2352; 5 µl at 1 mg/ml; n=3
Description: as §1

[15] = test system: E. faecalis; set-up: key: –: “−” = No inhibition; “+” = Unclear zone; “++” = zone < 1 cm; “+++” = zone ≥ 1 cm; conditions: 5 µl at 1 mg/ml, n=3
Description: as §1

[16] = test system: Lactococcus garvieae; set-up: key: –: “−” = No inhibition; “+” = Unclear zone; “++” = zone < 1 cm; “+++” = zone ≥ 1 cm; conditions: Lactococcus garvieae DCC43; 5 µl at 1 mg/ml; n=3
Description: as §1

[17] = test system: Enterococcus avium; set-up: key: –: “−” = No inhibition; “+” = Unclear zone; “++” = zone < 1 cm; “+++” = zone ≥ 1 cm; conditions: Enterococcus avium LMG 3465; 5 µl at 1 mg/ml; n=3
Description: as §1

[18] = test system: S. homonis; conditions: S. homonis LMG 3129; 5 µl at 1 mg/ml; n=3
Description: as §1

[19] = test system: E. faecium; conditions: 5 µl at 1 mg/ml, n=3
Description: as §1

[20] = test system: Lactobacillus curvatus; conditions: 5 µl at 1 mg/ml, n=3
Description: as §1

[21] = Lactobacillus curvatus LTH 1174

| Sequence | Average inhibition score [1] | Average inhibition score [2] | Average inhibition score ([3]; S. uberis 8008-1) | Average inhibition score [4] | Average inhibition score [5] | Average inhibition score ([6]; E. coli TG1) | Average inhibition score ([6]; Esherichia coli DH5α) | Average inhibition score ([7]; L. innocua LMG 2710) | Average inhibition score ([7]; L. innocua LMG 2785) | Average inhibition score ([8]; L. sakei 148) | Average inhibition score ([8]; L. sakei LMG 2380) | Average inhibition score [9] | Average inhibition score [10] | Average inhibition score ([11]; L. lactis IL1403) | Average inhibition score ([11]; L. lactis LMG 2081) | Average inhibition score ([12]; L. monocytogenes 223) | Average inhibition score ([12]; L. monocytogenes 279) | Average inhibition score ([12]; L. monocytogenes 400) | Average inhibition score ([12]; L. monocytogenes 403) | Average inhibition score [13] | other results |
| --- | --- | --- | --- | --- | --- | --- | --- | --- | --- | --- | --- | --- | --- | --- | --- | --- | --- | --- | --- | --- | --- |
| MLAKIKAMIKKFPNPYTLAAKLTTYEINWYKQQYGRYPWERPVA [EJ97, enterocin EJ97] | - | - | - | - | - | - | - | +++ (“+++”= zone > 1 cm) | - | - | - | - | - | +++ (“+++”= zone > 1 cm) | - | - | - | - | - | + | Average inhibition score ([3]; S. uberis 7904-3): -; Average inhibition score [14]: ++ (“++” = zone < 1 cm); Average inhibition score ([15]; E. faecalis LMG 2333): +++ (“+++”= zone > 1 cm); Average inhibition score ([15]; E. faecalis LMG 3330): +++ (“+++”= zone > 1 cm); Average inhibition score ([15]; E. faecalis LMG 3331): +++ (“+++”= zone > 1 cm); Average inhibition score ([15]; E. faecalis LMG 3332): +++ (“+++”= zone > 1 cm); Average inhibition score ([15]; E. faecalis V583): +; Average inhibition score [16]: +; Average inhibition score [17]: +++ (“+++”= zone > 1 cm); Average inhibition score [18]: +++ (“+++”= zone > 1 cm); Average inhibition score ([19]; E. faecium AL41): +++ (“+++”= zone > 1 cm); Average inhibition score ([19]; E. faecium L50): +++ (“+++”= zone > 1 cm); Average inhibition score ([19]; E. faecium P13): +++ (“+++”= zone > 1 cm); Average inhibition score ([19]; E. faecium P21): +++ (“+++”= zone > 1 cm); Average inhibition score ([20]; L. curvatus LMG 2353): +++ (“+++”= zone > 1 cm); Average inhibition score [20, 21]: +++ (“+++”= zone > 1 cm) |
| MKFKFNPTGTIVKKLTQYEIAWFKNKHGYYPWEIPRC [K1, enterocin K1] | - | - | - | - | - | - | - | ++ (“++” = zone < 1 cm) | +++ (“+++”= zone > 1 cm) | +++ (“+++”= zone > 1 cm) | ++ (“++” = zone < 1 cm) | - | - | +++ (“+++”= zone > 1 cm) | - | - | - | - | - | + | Average inhibition score [14]: +; Average inhibition score ([15]; E. faecalis LMG 2333): +; Average inhibition score ([15]; E. faecalis LMG 3330): +; Average inhibition score ([15]; E. faecalis LMG 3331): +; Average inhibition score ([15]; E. faecalis LMG 3332): +; Average inhibition score ([15]; E. faecalis V583): +; Average inhibition score [16]: +++ (“+++”= zone > 1 cm); Average inhibition score [17]: +; Average inhibition score [18]: ++ (“++” = zone < 1 cm); Average inhibition score ([19]; E. faecium AL41): ++ (“++” = zone < 1 cm); Average inhibition score ([19]; E. faecium L50): ++ (“++” = zone < 1 cm); Average inhibition score ([19]; E. faecium P13): +++ (“+++”= zone > 1 cm); Average inhibition score ([19]; E. faecium P21): ++ (“++” = zone < 1 cm); Average inhibition score ([20]; L. curvatus LMG 2353): +++ (“+++”= zone > 1 cm); Average inhibition score [20, 21]: +++ (“+++”= zone > 1 cm) |
